Measured values: patent publication US9113629B2, “4-amino-6-(4-substituted-phenyl)-picolinates and 6-amino-2-(4-substituted-phenyl)-pyrimidine-4-carboxylates and their use as herbicides” (DOW AGROSCIENCES LLC, priority 2013, dated 2015)

Columns and labels:
[1] = Post-emergent Test III, herbicidal activity in wheat and barley; assay type: in vivo, Lolium multiflorum, Lolium rigidum; conditions: Lolium multiflorum, post-emergence, 504 h, Table 9, post-emergent, 21 d, read-out: Visual Growth Reduction (%) 21 Days After Application LOLSS; for pest or weed control at 35 g/ha: 35 g ai/ha; for pest or weed control at 70 g/ha: 70 g ai/ha; for pest or weed control at 140 g/ha: 140 g ai/ha
Outline: (§1)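 Plants at the second to third true-leaf stage, grown in a greenhouse at about 18/17 °C with a 14 h photoperiod, were sprayed post-emergence at 187 L/ha with the high rate and ½× to 1/16× serial dilutions in an acetone/DMSO/crop-oil/surfactant carrier. Injury was rated visually at 21 d on a 0–100% scale, and GR20–GR90 were derived by probit analysis.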

[2] = system: APESV: bentgrass (Apera spica-venti); experiment: as above; assay type: in vivo; conditions: Table 9, 21 d; for pest or weed control at 35 g/ha / pest or weed control at 70 g/ha / pest or weed control at 140 g/ha: Apera spica-venti, post-emergence, 504 h, post-emergent, read-out: Visual Growth Reduction (%) 21 Days After Application APESV; for pest or weed control at 35 g/ha: 35 g ai/ha; for pest or weed control at 70 g/ha: 70 g ai/ha; for pest or weed control at 140 g/ha: 140 g ai/ha; for GR50 APESV: dose for 50 percent growth reduction; for GR50 APESV / GR80 APESV: probit analysis; for GR80 APESV: dose for 80 percent growth reduction
Outline: as §1

[3] = system: LOLSS: ryegrass including, Italian ryegrass (Lolium multiflorum), rigid ryegrass (Lolium rigidum), annual ryegrass (Lolium multiflorum subsp. Gaudini); experiment: as above; assay type: in vivo; conditions: Table 9, probit analysis, 21 d; for GR50 LOLSS: dose for 50 percent growth reduction; for GR80 LOLSS: dose for 80 percent growth reduction
Outline: as §1

[4] = system: SETVI: green foxtail (Setaria viridis); experiment: as above; assay type: in vivo; conditions: Table 9, 21 d; for pest or weed control at 35 g/ha / pest or weed control at 70 g/ha / pest or weed control at 140 g/ha: Setaria viridis, post-emergence, 504 h, post-emergent, read-out: Visual Growth Reduction (%) 21 Days After Application SETVI; for pest or weed control at 35 g/ha: 35 g ai/ha; for pest or weed control at 70 g/ha: 70 g ai/ha; for pest or weed control at 140 g/ha: 140 g ai/ha; for GR50 SETVI: dose for 50 percent growth reduction; for GR50 SETVI / GR80 SETVI: probit analysis; for GR80 SETVI: dose for 80 percent growth reduction
Outline: as §1

[5] = system: KCHSC: kochia (Kochia scoparia); experiment: as above; assay type: in vivo; conditions: Table 9, 21 d; for pest or weed control at 35 g/ha / pest or weed control at 70 g/ha / pest or weed control at 140 g/ha: Bassia scoparia, post-emergence, 504 h, post-emergent, read-out: Visual Growth Reduction (%) 21 Days After Application KCHSC; for pest or weed control at 35 g/ha: 35 g ai/ha; for pest or weed control at 70 g/ha: 70 g ai/ha; for pest or weed control at 140 g/ha: 140 g ai/ha; for GR50 KCHSC: dose for 50 percent growth reduction; for GR50 KCHSC / GR80 KCHSC: probit analysis; for GR80 KCHSC: dose for 80 percent growth reduction
Outline: as §1

[6] = system: TRZSS: wheat, including spring and winter (Triticum aestivum); experiment: as above; assay type: in vivo; conditions: Table 9, 21 d; for GR20 TRZSS: dose for 20 percent growth reduction, probit analysis; for pest or weed control at 35 g/ha / pest or weed control at 70 g/ha / pest or weed control at 140 g/ha: Triticum aestivum, post-emergence, 504 h, post-emergent, read-out: Visual Growth Reduction (%) 21 Days After Application TRZSS; for pest or weed control at 35 g/ha: 35 g ai/ha; for pest or weed control at 70 g/ha: 70 g ai/ha; for pest or weed control at 140 g/ha: 140 g ai/ha
Outline: as §1

[7] = system: HORSS: barley, including spring and winter (Hordeum vulgare); experiment: as above; assay type: in vivo; conditions: Table 9, 21 d; for pest or weed control at 35 g/ha / pest or weed control at 70 g/ha / pest or weed control at 140 g/ha: Hordeum vulgare, post-emergence, 504 h, post-emergent, read-out: Visual Growth Reduction (%) 21 Days After Application HORSS; for pest or weed control at 35 g/ha: 35 g ai/ha; for pest or weed control at 70 g/ha: 70 g ai/ha; for pest or weed control at 140 g/ha: 140 g ai/ha; for GR20 HORSS: dose for 20 percent growth reduction, probit analysis
Outline: as §1

Row | Structure (SMILES) | melting point [°C] | pest or weed control at 35 g/ha [1] [%] | pest or weed control at 70 g/ha [1] [%] | pest or weed control at 35 g/ha [2] [%] | pest or weed control at 70 g/ha [2] [%] | GR50 APESV [2] [g ai/ha] | GR80 APESV [2] [g ai/ha] | GR50 LOLSS [3] [g ai/ha] | GR80 LOLSS [3] [g ai/ha] | pest or weed control at 35 g/ha [4] [%] | pest or weed control at 70 g/ha [4] [%] | GR50 SETVI [4] [g ai/ha] | GR80 SETVI [4] [g ai/ha] | pest or weed control at 35 g/ha [5] [%] | pest or weed control at 70 g/ha [5] [%] | GR50 KCHSC [5] [g ai/ha] | GR80 KCHSC [5] [g ai/ha] | GR20 TRZSS [6] [g ai/ha] | pest or weed control at 35 g/ha [6] [%] | pest or weed control at 70 g/ha [6] [%] | also measured
1 | COC(=O)c1nc(-c2ccc(Br)cc2)c(Cl)c(N)c1Cl [Compound 47] | 159.6 to 161.1 | 0 to 29 | 45 to 59 | 95 to 100 | 95 to 100 | 10 | 14 | 80 | >140 | 0 to 29 | 75 to 84 | 51 | 104 | 85 to 94 | 75 to 84 | 20 | 45 | 1 | 85 to 94 | 95 to 100 | pest or weed control at 140 g/ha [1]: 60 to 74%; pest or weed control at 140 g/ha [2]: 95 to 100%; pest or weed control at 140 g/ha [4]: 85 to 94%; pest or weed control at 140 g/ha [5]: 95 to 100%; pest or weed control at 140 g/ha [6]: 95 to 100%; pest or weed control at 35 g/ha [7]: 95 to 100%; pest or weed control at 70 g/ha [7]: 95 to 100%; pest or weed control at 140 g/ha [7]: 95 to 100%; GR20 HORSS [7]: 1 g ai/ha
2 | COC(=O)c1nc(-c2cc(F)c(Br)cc2F)c(F)c(N)c1Cl [Compound 51, methyl 4-amino-6-(4-bromo-2,5-difluorophenyl)-3-chloro-5-fluoropicolinate] | 153 to 154 | 75 to 84 | 75 to 84 | 85 to 94 | 95 to 100 | 3 | 11 | 3 | 61 | 75 to 84 | 85 to 94 | 24 | 49 | 85 to 94 | 95 to 100 | 4 | 14 | 1 | 85 to 94 | 95 to 100 | pest or weed control at 35 g/ha [7]: 85 to 94%; pest or weed control at 70 g/ha [7]: 95 to 100%; GR20 HORSS [7]: 1 g ai/ha
3 | COC(=O)c1nc(-c2cc(F)c(I)cc2F)c(F)c(N)c1Cl [Compound 55, methyl 4-amino-3-chloro-6-(2,5-difluoro-4-iodophenyl)-5-fluoropicolinate] | 142 to 144 | 60 to 74 | 75 to 84 | 75 to 84 | 95 to 100 | 4 | 18 | 21 | 50 | 75 to 84 | 85 to 94 | 29 | 46 | 85 to 94 | 85 to 94 | 4 | 21 | 1 | 85 to 94 | 95 to 100 | pest or weed control at 35 g/ha [7]: 85 to 94%; pest or weed control at 70 g/ha [7]: 95 to 100%; GR20 HORSS [7]: 1 g ai/ha
4 | Nc1cc(-c2ccc(Br)cc2F)nc(C(=O)O)c1Cl [Compound 74] | 186 to 187.3 | 30 to 44 | 45 to 59 | 85 to 94 | 85 to 94 | 10 | 25 | >140 | >140 | 75 to 84 | 85 to 94 | 3 | 49 | 85 to 94 | 95 to 100 | 3 | 11 | 1 | 75 to 84 | 75 to 84 | pest or weed control at 35 g/ha [7]: 85 to 94%; pest or weed control at 70 g/ha [7]: 85 to 94%; GR20 HORSS [7]: 1 g ai/ha
5 | COC(=O)c1nc(-c2ccc(I)cc2)c(Cl)c(N)c1Cl [Compound 96] | 187.2 to 189.9 | 45 to 59 | 60 to 74 | 30 to 44 | 30 to 44 | 125 | >140 | 48 | >140 | 0 to 29 | 60 to 74 | 72 | 128 | 0 to 29 | 60 to 74 | 79 | >140 | 1 | 85 to 94 | 85 to 94 | pest or weed control at 140 g/ha [1]: 60 to 74%; pest or weed control at 140 g/ha [2]: 45 to 59%; pest or weed control at 140 g/ha [4]: 75 to 84%; pest or weed control at 140 g/ha [5]: 60 to 74%; pest or weed control at 140 g/ha [6]: 95 to 100%; pest or weed control at 35 g/ha [7]: 85 to 94%; pest or weed control at 70 g/ha [7]: 95 to 100%; pest or weed control at 140 g/ha [7]: 95 to 100%; GR20 HORSS [7]: 1 g ai/ha
